The test system of one assay is IL-5. Put plainly: Cytokine assay, IL-5 release from PBMC. It is filed as cell-based. The conditions noted are these: human PBMC, 20 ug/mL PHA, supernatant at 48 hours. Here is the method:
(§1) The ability of the compounds described herein to inhibit pro-inflammatory cytokines or phsophodiesterases were tested.
(§2) Frozen human peripheral blood mononucleocytes (PBMC) were thawed and centrifuged. Cryopreservation media was aspirated off of the cell pellet, and the cells were resuspended in fresh culture media (CM) comprising RPMI 1640 and 10% FBS in 96 well plates. Test article was dissolved in DMSO to form a 10 mM sample (DMSO, 100%). The 10 mM samples were diluted to 100 μM in CM (DMSO, 1%), then further diluted to 10, 1, 0.1, 0.01 μM in 200 μL of CM (n=3). […] IL-23 was assayed using a commercial ELISA kit (R&D Systems).

Another assay concerns TNF-α. Kind of assay: Cytokine assay, TNF-α release from PBMC. It is filed as cell-based. To be noted: 1 μg/mL LPS, supernatant at 24 hours. The protocol:
as §1, §2

For another assay, the system named is IL-10. Put plainly: Cytokine assay, IL-10 release from PBMC. Type of assay: cell-based. To be noted: human PBMC, 20 ug/mL PHA, supernatant at 48 hours. The protocol:
as §1, §2

Another assay has as its system IFN-γ. Put plainly: Cytokine assay, IFN-γ release from PBMC. It is filed as cell-based. To be noted: human PBMC, 20 ug/mL PHA, supernatant at 24 hours. The protocol:
as §1, §2

Assay [1] concerns T1, PDE4 partially purified from human U-937 myeloid leukemia cells.
T1 construct: PDE4 partially purified from human U-937 myeloid leukemia cells was used
Kind of assay: PDE4 Assay (enzyme from U-937 cells, [3H]cAMP). To be noted: PDE4 from U-937 cells, Tris buffer pH 7.5, 20 minutes at 25° C. It is filed as biochemical. Here is the method:
Test article and/or vehicle was incubated with 0.2 mg enzyme and 1 mM cAMP containing 0.01 mM [3H]cAMP in Tris buffer pH 7.5 for 20 minutes at 25° C. The reaction was terminated by boiling for 2 minutes and the resulting AMP is converted to adenosine by addition of 10 mg/ml snake venom nucleotidase and further incubation at 37° C. for 10 minutes. Unhydrolyzed cAMP is bound to AG1-X2 resin, and remaining [3H]Adenosine in the aqueous phase is quantitated by scintillation counting.

The next assay deals with IL-2. Kind of assay: Cytokine assay, IL-2 release from PBMC. The conditions noted are these: human PBMC, 20 ug/mL PHA, supernatant at 24 hours. It is filed as cell-based. Here is the method:
as §1, §2

SMILES strings stand for the structures. Structures can show the parent of a compound that is named as a salt. Bounds are passed on as bounds.

`N#Cc1ccc(Oc2ccc3c(c2)COB3O)cc1Cl` [D2, 5-(3-Chloro-4-cyanophenoxy)-1-hydroxy-2,1-benzoxaborole]: the 50% inhibitory concentration (IC50) (in general, the concentration that inhibits the measured activity by half) in the assay on IL-5 was less than 1000 nM; with TNF-α (Homo sapiens, PBMC, 24 h) it was less than 1000 nM; in the assay with IL-10, greater than 10000 nM; in the assay with IFN-γ, less than 1000 nM; in assay [1], less than 1000 nM; in the assay with IL-2 it was less than 1000 nM.
With `Cc1cc(Oc2ccc3c(c2)COB3O)ccc1C#N` [D3, 5-(4-Cyano-3-methylphenoxy)-1,3-dihydro-1-hydroxy-2,1-benzoxaborole], the IC50 with IL-5 is less than 1000 nM; with TNF-α (Homo sapiens, PBMC, 24 h) it was less than 1000 nM; in the assay on IL-10, greater than 10000 nM; with IFN-γ, less than 1000 nM; in assay [1], less than 1000 nM; in the assay on IL-2, less than 1000 nM.
In the case of `O=C1NC(=O)c2cc(Oc3ccc4c(c3)COB4O)ccc21` [D9, 5-(1,3-Dihydro-1-hydroxy-2,1-benzoxaborol-5-yloxy)isoindoline-1,3-dione], the IC50 is less than 1000 nM in the assay with IL-5; less than 1000 nM in the assay with TNF-α (Homo sapiens, PBMC, 24 h); less than 1000 nM in the assay with IL-10; less than 1000 nM with IFN-γ; less than 1000 nM in assay [1]; less than 1000 nM in the assay with IL-2.
Regarding `CC(=O)Oc1cc(Oc2ccc3c(c2)COB3O)ccc1C#N` [D11, 5-(4-Cyano-3-acetoxyphenoxy)-1,3-dihydro-1-hydroxy-2,1-benzoxaborole], the IC50 was 4000 to 10000 nM with IL-5; less than 1000 nM with TNF-α (Homo sapiens, PBMC, 24 h); 1000 to 4000 nM in the assay on IL-10; 1000 to 4000 nM in the assay on IFN-γ; less than 1000 nM in assay [1]; 1000 to 4000 nM in the assay with IL-2.
Take `N#Cc1c(Cl)cccc1Oc1ccc2c(c1)COB2O` [D13, 5-(3-Chloro-2-cyanophenoxy)-1,3-dihydro-1-hydroxy-2,1-benzoxaborole]: the IC50 with IL-5 was 1000 to 4000 nM; with TNF-α (Homo sapiens, PBMC, 24 h) it was 4000 to 10000 nM; with IL-10, 1000 to 4000 nM; in the assay with IFN-γ, 1000 to 4000 nM; in assay [1], 1000 to 4000 nM; in the assay on IL-2, 1000 to 4000 nM.
Regarding `N#Cc1ccc(Oc2ccc3c(c2)COB3O)c(CNC=O)c1` [D25, 5-[4-Cyano-2-(formylaminomethyl)phenoxy]-1,3-dihydro-1-hydroxy-2,1-benzoxaborole], the IC50 is less than 1000 nM in the assay with IL-5; 4000 to 10000 nM in the assay on TNF-α (Homo sapiens, PBMC, 24 h); 1000 to 4000 nM in the assay with IL-10; 1000 to 4000 nM with IFN-γ; less than 1000 nM in assay [1]; less than 1000 nM with IL-2.
With `N#Cc1ccc(Oc2ccc3c(c2)COB3O)c(CN)c1` [D26, 5-(2-Aminomethyl-4-cyanophenoxy)-1,3-dihydro-1-hydroxy-2,1-benzoxaborole hydrochloride], the IC50 with IL-5 is 4000 to 10000 nM; in the assay with TNF-α (human PBMC, hydrochloride) it was greater than 10000 nM; in the assay on IL-10, greater than 10000 nM; in the assay with IFN-γ it was 4000 to 10000 nM; in assay [1], 1000 to 4000 nM; in the assay with IL-2, 1000 to 4000 nM.
Consider `CCN(CC)C(=O)COc1cc(C#N)ccc1Oc1ccc2c(c1)COB2O` [D28, 2-(5-cyano-2-(1-hydroxy-1,3-dihydrobenzo[c][1,2]oxaborol-5-yloxy)phenoxy)-N,N-diethylacetamide], for which the IC50 in the assay on IL-5 is less than 1000 nM; in the assay on TNF-α (Homo sapiens, PBMC, 24 h) it was less than 1000 nM; with IL-10, 1000 to 4000 nM; in the assay on IFN-γ it was less than 1000 nM; in assay [1], less than 1000 nM; in the assay on IL-2, less than 1000 nM.
On to `CC(C)(C)OC(=O)COc1cc(C#N)ccc1Oc1ccc2c(c1)COB2O` [D30, 5-[4-Cyano-2-(tert-butoxycarbonylmethoxy)phenoxy], 3-dihydro-1-hydroxy-2,1-benzoxaborole], for which the IC50 was less than 1000 nM in the assay on IL-5; less than 1000 nM in the assay on TNF-α (Homo sapiens, PBMC, 24 h); less than 1000 nM with IL-10; less than 1000 nM in the assay on IFN-γ; less than 1000 nM in assay [1]; less than 1000 nM in the assay on IL-2.
Regarding `CCOC(=O)COc1cc(Oc2ccc3c(c2)COB3O)ccc1C#N` [D38, [2-Cyano-5-(1-hydroxy-1,3-dihydro-benzo[c][1,2]oxaborol-5-yloxy)-phenoxy]-acetic acid ethyl ester], the IC50 in the assay with IL-5 was less than 1000 nM; in the assay with TNF-α (Homo sapiens, PBMC, 24 h) it was less than 1000 nM; in the assay on IL-10, 1000 to 4000 nM; in the assay with IFN-γ it was less than 1000 nM; in assay [1], less than 1000 nM; in the assay on IL-2, less than 1000 nM.
